Experiments:
Format in all cases: in vivo
panelists = assay: experiment on cooling intensity: panelists taste solutions and compare with menthol at 2 ppm; conditions: tasted by a small group of panelists; reference menthol at 2 ppm
mouth [1] = assay: Application in mouthwash: cooling perception in the mouth; conditions: mouthwash with 10 mL of 1% solution in alcohol per liter, 30 mL swished, gargled and spit out
Experimental: [table] All the ingredients are mixed. 30 mL of obtained solution is put in the mouth, swished around, gargled and spit out. […] The cooling perception lasts for several hours

mouth [2] = assay: Application in toothpaste: cooling perception in the mouth; conditions: toothgel with 1.500 g of 2% solution in PG per 100 g, teeth brushed, mouth rinsed with water
Excerpt: [table] The chemicals are mixed in the toothgel, a piece of toothgel is put on a toothbrush and a panelist's teeth are brushed. The mouth is rinsed with water and the water is spit out. […] The cooling perception lasts for several hours.

SMILES	Concentration of solution having a cooling intensity similar or slightly higher than that of a solution of menthol at 2 ppm (panelists) [ppm]	other results
CC1CCC(C(C)C)C(C(=O)Nc2ccc3ncsc3c2)C1 (stereo not shown) [Example 3, N-benzothiazol-6-yl menthanecarboxamide]	0.3	
CC1CCC(C(C)C)C(C(=O)Nc2ccc(-n3cncn3)cc2)C1 (stereo not shown) [Example 4, N-4-([1,2,4]triazol-1-yl)-phenyl-3-p-menthanecarboxamide]	0.02	
CC1CCC(C(C)C)C(C(=O)Nc2ccc3c(c2)OCO3)C1 (stereo not shown) [N-benzo[1,3]dioxol-5-yl-3-p-menthanecarboxamide]	0.02	
CC1CCC(C(C)C)C(C(=O)Nc2cccc3ocnc23)C1 (stereo not shown) [Example 1, N-benzooxazol-4-yl 3-p-menthanecarboxamide]	0.02	duration of cooling perception (mouth [1]): several hours; cooling sensation (mouth [1]; every area of the mouth and lips): intense cooling
CC1CCC(C(C)C)C(C(=O)Nc2cccc(-c3cnco3)c2)C1 (stereo not shown) [Example 6, N-3-(oxazol-5-yl)-phenyl-3-p-menthanecarboxamide]	0.1	duration of cooling perception (mouth [2]): several hours; cooling sensation (mouth [2]; all areas of the mouth): intense cooling sensation
CC1CCC(C(C)C)C(C(=O)Nc2ccc(-c3cnco3)cc2)C1 (stereo not shown) [Example 5, N-4-(oxazol-5-yl)-phenyl-3-p-menthanecarboxamide]	0.5	
CC1CCC(C(C)C)C(O)C1 (stereo not shown) [Example 1-Menthol, 1-Menthol, reference compound]	2.0	
CC1CCC(C(C)C)C(C(=O)Nc2ccc(N3CCOCC3)cc2)C1 (stereo not shown) [N-4-(morpholin-4-yl)-phenyl 3-p-menthanecarboxamide]	0.2	
CC1CCC(C(C)C)C(C(=O)Nc2ccc(-n3cccn3)cc2)C1 (stereo not shown) [N-4-(pyrazol-1-yl)-phenyl-3-p-menthanecarboxamide]	0.02	

— patent publication US7868004B2, “Menthane carboxamide derivatives having cooling properties” (Givaudan S.A., priority 2005, dated 2011)
